The values that follow come from patent publication US9688689B2, “Compounds and compositions for inducing chondrogenesis” (Novartis AG, priority 2014, dated 2017).

Structures are written as SMILES.

This assay has as its system Primary articular chondrocytes from normal bovine knees. The experiment in a line: NO Release Assay in Bovine Chondrocytes (inhibition of cytokine induced NO release, Greiss reagent). It is filed as cell-based. The note with it: Bos taurus, Chondrocyte; 20 ng/ml TNFα and 10 ng/ml human oncostatin M, 48 hours; read-out: NO Inh. IC50. The method, then: The compounds of the present invention were evaluated in two functional assays to assess their chondrogenesis activities (Type II Collagen Expression) and chondrocyte protective activities (NO release assay).
The assay was described in Johnson, K., et al., (2012) Science 336, 717-721. Chondrocytes release NO during OA pathogenesis. This assay measures the inhibition of nitric oxide release by the treated compound (an indicator of chondro-protection) Primary articular chondrocytes from normal bovine knees (Animal Technologies, Tyler, Tex.) were isolated after dissection and collagenase digestion (Worthington Biochemical) of the tibial plateau and femoral condyle articular cartilage. The cells were initially plated at 80-90% confluency after isolation. Primary chondrocytes were cultured in high-glucose Dulbecco's modified Eagle's medium (DMEM) supplemented with 10% fetal bovine serum (FBS), 1% L-glutamine, 100 units/ml of penicillin, and 50 μg/ml of streptomycin (Life Technologies, Carlsbad, Calif.) and maintained at 37° C. in the presence of 5% CO2 for 7 days prior to initiation of each experiment. During the 7-day culture period, the cells adhered and established a chondrocyte-like appearance that was maintained throughout the experimental period. Functional studies on chondrocytes were performed in high-glucose DMEM with no FBS unless indicated otherwise.
After one week of culture, 8500 cells were plated per well in Greiner 384 well white clear bottom plates in growth media. Following 24 hours of culture, the media was removed and replaced with serum free DMEM containing 20 ng/ml TNFα and 10 ng/ml human oncostatin M (inflammatory mediators). […] 20 μl of the supernatant was mixed with 20 μl of the Greiss reagent (Promega # G2930) and quantitated at 540 nm. The Greiss reagent part A (1% Sulfanilamide in 5% phosphoric acid) was mixed at a 1:1 ration with Greiss reagent part B (0.1% N-1-napthylethylenediamine dihydrochloride in water) immediately prior to added to the culture supernatant.
On to `O=C(Nc1ccc(Cl)c(Cl)c1)[C@@H]1[C@@H](c2ccncc2)[C@@H]2CC[C@H]1O2` (single isomer, unassigned) [Compound 71], for which the IC50 (commonly the concentration that inhibits the measured activity by half) was above 29 µM.
Next, `O=C(Nc1ccc(Cl)c(Cl)c1)[C@H]1[C@H](c2ccncc2)[C@H]2CC[C@@H]1O2` (single isomer, unassigned) [Compound 103]: above 29 µM; `Nc1cc([C@@H]2[C@@H](C(=O)Nc3ccc(Cl)c(Cl)c3)[C@H]3CC[C@@H]2O3)ccn1` (single isomer, unassigned) [Compound 107]: above 33 µM.
Next, `Nc1cc([C@@H]2[C@H](C(=O)Nc3ccc(Cl)c(Cl)c3)[C@H]3CC[C@@H]2O3)ccn1` (single isomer, unassigned) [Compound 115]: 26 µM.
As to `CCOC(=O)c1ccccc1NC(=O)[C@H]1[C@@H](c2nc(-c3ccc(Cl)cc3)no2)[C@@H]2CC[C@H]1O2` [Compound 2], the IC50 was above 30 µM.
Regarding `Nc1cc([C@@H]2[C@@H](C(=O)Nc3ccc(Cl)c(Cl)c3)[C@H]3CC[C@@H]2O3)ccn1` [Compound 5], the half-maximal inhibitory concentration (IC50) came to 16 µM.
In the case of `O=C(Nc1ccc(Cl)c(Cl)c1)[C@@H]1[C@H](c2ccncc2)[C@H]2CC[C@@H]1O2` [Compound 8] it was above 33 µM.
Regarding `COC(=O)c1cc(-c2ccccc2)ccc1NC(=O)[C@H]1[C@@H](c2nc(-c3ccc(Cl)cc3)no2)[C@@H]2CC[C@H]1O2` [Compound 9], the IC50 was above 11.1 µM.
In the case of `Nc1cc([C@H]2[C@H](C(=O)Nc3ccc(Cl)c(Cl)c3)[C@@H]3CC[C@H]2O3)ccn1` [Compound 10], the IC50 is 22 µM.
Regarding `O=C(Nc1ccc(Cl)c(Cl)c1)[C@H]1[C@@H](c2ccncc2)[C@@H]2CC[C@H]1O2` [Compound 11], the IC50 is above 33 µM.
As to `CCOC(=O)c1ccc(NC(=O)[C@H]2[C@@H](c3nc(-c4ccc(Cl)cc4)no3)[C@@H]3CC[C@H]2O3)cc1` [Compound 17], the IC50 was above 11.1 µM.
In the case of `O=C(Nc1ccc(Cl)c(F)c1)[C@@H]1[C@H](c2ccncc2)[C@@H]2CC[C@H]1O2` [Compound 18] it was above 33 µM; in that of `N#Cc1cc([C@H]2[C@@H](C(=O)Nc3ccc(-c4ccccc4F)c(F)c3)[C@H]3CC[C@@H]2O3)ccn1` [Compound 20], above 33 µM; in that of `COC(=O)c1cc(Cl)ccc1NC(=O)[C@H]1[C@H](c2ccncc2)[C@@H]2CC[C@H]1O2` [Compound 24], above 33 µM.
On to `O=C(Nc1ccc(-c2ccccc2Cl)c(F)c1)[C@H]1[C@H](c2ccncc2)[C@@H]2CC[C@H]1O2` [Compound 26], for which the concentration for half-maximal inhibition (IC50) was above 3.4 µM.
On to `O=C(Nc1ccc(-c2ccccc2F)c(Cl)c1)[C@@H]1C(c2cccc(C(F)(F)F)n2)[C@@H]2CC[C@H]1O2` (stereo partly shown) [Compound 27], for which the half-inhibitory concentration (IC50) is above 33 µM.
With `O=C(Nc1ccc(-c2ccccc2Cl)c(F)c1)C1=C(c2ccnn2C2CCOCC2)[C@@H]2CCC1O2` [Compound 31], the IC50 was above 33 µM.
As to `Cc1cc(C2=C(C(=O)Nc3ccc(-c4ccccc4F)c(F)c3)C3CC[C@@H]2O3)ccn1` [Compound 32], the IC50 was above 27 µM.
Next, `O=C(Nc1ccc(Cl)c(F)c1)[C@H]1[C@H](c2ccncc2)[C@@H]2CC[C@H]1O2` [Compound 33]: above 33 µM.
In the case of `O=C(Nc1cnc(-c2ccccc2)nc1)C1=C(c2ccncc2)C2CCC1O2` (stereo not shown) [Compound 38] it was above 33 µM; in that of `O=C(Nc1ccc(-c2ccccc2)c(Cl)c1)[C@H]1[C@H](c2ccncc2)[C@@H]2CC[C@H]1O2` [Compound 39], above 33 µM.
Next, `O=C(Nc1cccc(Cl)c1F)[C@H]1[C@H](c2ccncc2)[C@@H]2CC[C@H]1O2` [Compound 41]: above 33 µM.
Turning to `CCOC(=O)c1ccc(NC(=O)C2=C(c3cccc(C(F)(F)F)n3)[C@@H]3CCC2O3)cc1F` [Compound 43], the IC50 was above 33 µM.
In the case of `O=C(Nc1ccc(-c2ccccc2F)c(F)c1)C1=C(c2ccnc(Cl)c2)[C@@H]2CCC1O2` [Compound 44] it was 28 µM; in that of `O=C(Nc1ccc(-c2ccccc2)c(Cl)c1)C1=C(c2ccn[nH]2)[C@@H]2CC[C@H]1O2` [Compound 47], 18 µM; in that of `Nc1cc(C2=C(C(=O)Nc3ccc(-c4ccccc4F)c(F)c3)C3CC[C@@H]2O3)ccn1` [Compound 49], above 33 µM.
Turning to `O=C(Nc1ccc(-c2ccccc2)c(Cl)c1)C1=C(c2ccnn2C2CCOCC2)[C@@H]2CCC1O2` [Compound 50], the concentration for half-maximal inhibition (IC50) is 14 µM.
In the case of `O=C(Nc1cccc(OC(F)(F)F)c1F)C1=C(c2ccncc2)[C@@H]2CCC1O2` [Compound 51] it was 26 µM.
In the case of `O=C(Nc1ccc(-c2ccccc2F)c(F)c1)[C@H]1[C@H](c2ccncc2)[C@@H]2CC[C@H]1O2` [Compound 52], the IC50 is above 33 µM.
Next, `COC(=O)c1cc(Cl)ccc1NC(=O)C1=C(c2ccncc2)[C@@H]2CCC1O2` [Compound 54]: above 33 µM.
Next, `N#Cc1cc(C2=C(C(=O)Nc3ccc(-c4ccccc4F)c(F)c3)C3CC[C@@H]2O3)ccn1` [Compound 56]: above 33 µM.
In the case of `Cc1cc(NC(=O)C2=C(c3ccncc3)[C@@H]3CCC2O3)nn1-c1ccccc1` [Compound 61] it was above 33 µM; in that of `O=C(Nc1ccc(-c2ccccc2F)c(F)c1)C1=C(c2ccnn2C2CCOCC2)C2CCC1O2` (stereo not shown) [Compound 62], 15 µM.
On to `Nc1cc([C@H]2[C@@H](C(=O)Nc3ccc(-c4ccccc4F)c(F)c3)[C@H]3CC[C@@H]2O3)ccn1` [Compound 64], for which the 50% inhibitory concentration (IC50) is above 33 µM.
For `Cn1cc2cc([C@H]3[C@@H](C(=O)Nc4ccc(-c5ccccc5F)c(F)c4)[C@H]4CC[C@@H]3O4)ccc2n1` [Compound 65], the IC50 was above 33 µM.
Next, `CCOC(=O)c1ccc(NC(=O)C2=C(c3ccncc3)C3CCC2O3)cc1F` (stereo not shown) [Compound 67]: above 33 µM.
Next, `Cc1cc([C@@H]2[C@@H](C(=O)Nc3ccc(Cl)c(Cl)c3)[C@H]3CC[C@@H]2O3)ccn1` [Compound 69]: 21 µM; `O=C(Nc1ccc(-c2ccc(F)cc2F)c(F)c1)[C@H]1[C@H](c2ccncc2)[C@@H]2CC[C@H]1O2` [Compound 70]: above 33 µM.
Next, `O=C(Nc1ccc(-c2ccccc2)cc1)[C@@H]1[C@H](c2ccncc2)[C@@H]2CC[C@H]1O2` [Compound 74]: above 33 µM.
Take `O=C(Nc1ccc(-c2ccccc2Cl)c(F)c1)[C@@H]1[C@@H](c2ccncc2)[C@@H]2CC[C@H]1O2` [Compound 76]: the IC50 is above 33 µM.
Next, `CN(C)c1ncc([C@H]2[C@@H](C(=O)Nc3ccc(-c4ccccc4F)c(F)c3)[C@H]3CC[C@@H]2O3)cn1` [Compound 78]: 0.24 µM.
Regarding `O=C(Nc1ccc(-c2ccccc2F)c(F)c1)[C@@H]1[C@@H](c2ccccn2)[C@@H]2CC[C@H]1O2` [Compound 80], the IC50 is above 17 µM.
Turning to `O=C(Nc1ccc(-c2ccccc2)c(Cl)c1)[C@@H]1[C@@H](c2cccc(C(F)(F)F)n2)[C@@H]2CC[C@H]1O2` [Compound 83], the IC50 is above 33 µM.
In the case of `O=C(Nc1ccc(-c2ccccc2F)c(F)c1)[C@@H]1[C@@H](c2cccc(C(F)(F)F)n2)[C@@H]2CC[C@H]1O2` [Compound 86], the IC50 is above 33 µM.
In the case of `O=C(Nc1ccc(-c2ccccc2F)c(F)c1)[C@@H]1[C@H](c2cc(Cl)nc(Cl)c2)[C@@H]2CC[C@H]1O2` [Compound 87] it was above 33 µM.
In the case of `Cn1nc(C(F)(F)F)cc1[C@@H]1[C@@H](C(=O)Nc2ccc(Cl)c(Cl)c2)[C@H]2CC[C@@H]1O2` [Compound 89] it was above 33 µM.
